What was measured:
Tyrosinase = experiment: Enzymatic assay of tyrosinase (L-tyrosine substrate, absorbance 280 nm); format: biochemical; details: compound 5 mM; for Increment in enzymatic activity (%): % enzymatic activity - 100; for Enzymatic activity (%): compared to activity of the enzyme without active compounds (100%)
Procedure: The following compounds with formulae (II), (III), (IV) and (V) were tested as defined above, all in a concentration of 5 mM:
Tyrosinase is a membrane glycoprotein that is expressed in melanosomes, specialised organelles in the endocytic pathway through which the synthesis and assembly of melanin takes place. The synthesis of melanin from tyrosine takes place in pigment-producing cells, namely melanocytes. Melanin produced in melanosomes is transferred to keratinocytes through said processes. Melanin is a polymer that absorbs light within a broad spectrum of wavelengths, and protects keratinocytes from the harmful effects of UV radiations. A peroxidase is involved in the first phase of the reaction, which converts the amino acid into […] alanine or DOPA. The enzyme tyrosinase is involved in the subsequent phase of the biosynthesis pathway that produces dopaquinone. Melanin is synthesised starting from precursors of tyrosine and DOPA, through the enzyme tyrosinase, which presents both […] and oxidase functions. Tyrosine is converted into L-DOPA (dihydroxyphenylalanine) and, then, into dopaquinone, which is red, until the brown melanin polymer is obtained. In a first branch of the pathway dopaquinone is converted into black polymeric melanins, while the reaction with cysteine forms a series of polymers that are similar among them and are called red polymeric melanins.
REAGENT A (potassium phosphate buffer, 50 mM, pH 6.5, 25° C.):
REGENT B (L-tyrosine solution 1 mM):
REAGENT C (tyrosinase solution):
Prepare a solution A+B as described below:
10 mL of Reagent A (potassium phosphate buffer 50 mM)
10 mL of Reagent B (L-tyrosine 1 mM)
Vortex the solution and, if necessary, restore pH 6.5, at 25° C. with HCl 1M or NaOH.
Prepare the solutions with the various concentrations of the compounds to be tested, and preserve at 4° C. until use.
Defrost the tyrosinase solution and keep it on ice in the dark until use.
Mix, at ambient temperature, the solution of potassium phosphate buffer (50 mM, pH 6.5), the above solution A+B and the solutions that include the compounds of the formula (I) to be tested.
Use the following parameters:
Measuring mode: absorbance;
Execution settings: 700 seconds.
First read the enzymatic activity of tyrosinase when there is only L-tyrosine to verify the actual enzyme/mL units and have a basic reference to later assess the effects of the compound examined on enzyme activity:
1 replicates for the blank test (one blank test for each concentration to be tested);
2 replicates for the test (one test for each concentration to be tested).
Prepare the mixtures in separate cuvettes, as described below:
Test the examined compounds with formulae (II), (III), (IV) and (V), as specified below: […]
Calculating the Inhibition or Induction of Enzymatic Activity
[formula] df=dilution factor (30 because 0.1 mL/3 mL tot) 0.001=change of A280 nm/min per unit of L-tyrosine at pH 6.5, 25° C. in a 3 mL reaction mixture; 0.1=volume (mL) of enzyme used Unit/mg solid=unit/mL of enzyme: mg solid/mL of enzyme Unit/mg protein=unit/mL of enzyme: mg protein/mL of enzyme Definition of unit=increment of A280 nm/min equal to 0.001, at 25° C., pH 6.5 in a 3 mL reaction volume containing L-tyrosine.
The percentage of enzymatic activity was calculated for each tested compound, compared to the activity of the enzyme (100% enzymatic activity) failing the presence of active compounds.
The increment percentage of enzymatic activity was later calculated (% enzymatic activity−100).

[1] = test system: Hair follicles (HF) in anagen phase VI with normal pigmentation; experiment: Hair pigmentation in organ-cultured human hair follicles (quantitative Masson-Fontana melanin stain); format: cell-based
Procedure: The skin of the normal human scalp was taken from a person who was submitted to routine facial lifting surgery, after obtaining their informed consent. All experiments were performed in compliance with the Helsinki principles, with the Ethics Committee approval.
N^1-methyl-spermidine in the invention or the carrier as such (control group) were administered once every time the culture medium was changed, namely every 48 hours. The control compound administered was spermidine at a concentration of 0.5 μM.
The Masson-Fontana stain was administered to ensure histochemical visibility of melanin in frozen sections. Melanin was stained as brown granules and the degree of pigmentation was assessed with the quantitative Masson-Fontana technique. (Ito N., Ito T., Kromminga A., Bettermann A., Takigawa M., Kees F., Straub R. H., and Paus R. (2005): Human hair follicles display a functional equivalent of the hypothalamic-pituitary-adrenal axis and synthesise cortisol. (FASEB J 19, 1332-4)
This method is a highly sensitive and reliable indicator of variations in melanin synthesis, as proven by assays of enzymatic activity, and the expression of standard tyrosinase. […]
The intensity of the stain was analysed in a defined reference region of the hair follicle's pigmentation unit using the software ImageJ (National Institute of Health).

## CCCNCCCCNCCCN [Propyl-spermidine, N-(3-aminopropyl)-N^1-propyl-1,4-butandiammine]
Tyrosinase
  Increment in enzymatic activity (%): 31.29%
  Enzymatic activity (%): 131.29%

## NCCCNCCCCNC1CCCCC1 [Cyclohexyl-spermidine, N-(3-aminopropyl)-N^1-cyclohexyl-1,4-butandiammine]
Tyrosinase
  Increment in enzymatic activity (%): 35.31%
  Enzymatic activity (%): 135.31%

## CNCCCCNCCCN [Methyl-spermidine, N-(3-aminopropyl)-N^1-methyl-1,4-butandiammine]
Tyrosinase
  Increment in enzymatic activity (%): 5.16%
  Enzymatic activity (%): 105.16%
[1]; 0.5 μM vs spermidine 0.5 μM, FIG. 1
  absolute pigmentation intensity in hair follicles compared to spermidine (Spd): higher increase in absolute pigmentation intensity
[1]; 0.5 and 1.5 μM, administered every 48 hours, Masson-Fontana stain, FIGS. 1 and 2
  melanin produced / (absolute) intensity of pigmentation in hair follicles compared to carrier: increase in melanin produced

## CCNCCCCNCCCN [Ethyl-spermidine, N-(3-aminopropyl)-N^1-ethyl-1,4-butandiammine]
Tyrosinase
  Increment in enzymatic activity (%): 21.50%
  Enzymatic activity (%): 121.50%

From patent US9539191B2, “Composition for cosmetic use suitable to produce a pigmentation effect on hair” (Giuliani S.P.A., priority 2013, dated 2017)
